Laboratory results: US4163662A, “Liquid formulations of 1-(3,4-dichlorophenyl)-3-methoxy-3-methylurea and selected chloroacetamides” (E. I. Du Pont de Nemours and Company, priority 1977, dated 1979)

Columns and labels:
Assay type in all cases: physicochemical
[1] = Cold Storage Test at -5° C., propachlor/linuron in trichloroethylene (Table I); conditions: for Max. Stable concentration (no crystallization) / Min. Unstable concentration (crystals first appear): total active ingredient
Source text: The temperature limits below which crystallization of solute will occur can be measured by storing samples in a controlled temperature chest, seeding with tiny crystals of pure materials and observing the growth or disappearance of crystals after a period of several days. If no crystals form, the process is then repeated at a lower temperature, until the limit of stability has been found. However, crystallization characteristics can be also meaningfully, rapidly and conveniently measured by a determination of the cloud point of the system.
(§1) Purified linuron, purified propachlor, purified alachlor and commercial "Triclene" (trichloroethylene, technical) are used in the procedure. Samples containing various ratios and concentrations of linuron, propachlor, and linuron-propachlor mixtures are placed in a cold chest. The temperature is lowered and samples are seeded with traces of dust of the active ingredients after the solution has been cooled to the test temperature of -5° C. The samples are then observed over the course of at least 3 to 4 days to determine whether crystallization has occurred. When the temperature of the system is maintained within the range of -4.5° to -5.0° C. for 4 days after seeding. The maximum solution concentration in grams of active ingredient per 100 grams of solvent, at which no crystallization occurs (Max. Stable), and the minimum solution concentration at which crystals first appear (Min. Unstable) are observed.

[2] = Amount of insoluble crystalline material after room temperature storage (Tables III, IV, V)
Experimental: Samples weighing 5 grams each total weight were prepared by mixing the indicated solids and liquids, in the indicated proportions and shaking in closed vials, which were sealed with epoxy cement to prevent evaporation.
Tables III, IV, and V show the proportions of each mixture and the amounts of insoluble, crystalline material observed in each case after room temperature storage: […]

[3] = Cold Storage Test at 3° C. and at -8° to -9° C., alachlor/linuron (Table II); conditions: for Max. Stable concentration / Min. Unstable concentration: total active ingredient
Experimental: as §1
A similar test was run replacing propachlor with alachlor and at ^+ 3° C. and at -8° to -9° C. with the following results: […]

## CC(C)N(C(=O)CCl)c1ccccc1 [Propachlor, 2-chloro-N-isopropylacetanilide]
[1]
  Max. Solubility Range, Propachlor: 21.9-25 grams/100 grams Solvent
  Max. Stable concentration (no crystallization): 21.9 grams/100 grams Solvent
  Min. Unstable concentration (crystals first appear): 25 grams/100 grams Solvent
[2]; 18 weight % propachlor, 82% tetrachloroethylene, room temperature
  crystalline material: moderate
[2]; 30 weight % propachlor, 70% "Panasol" AN-3, room temperature
  crystalline material: moderate
[2]; 34 weight % propachlor, 66% xylene, room temperature
  crystalline material: moderate

## CON(C)C(=O)Nc1ccc(Cl)c(Cl)c1 [Linuron, 1-(3,4-dichlorophenyl)-3-methoxy-3-methylurea]
[1]
  Max. Solubility Range, Linuron: 4.1-5.2 grams/100 grams Solvent
  Max. Stable concentration (no crystallization): 4.1 grams/100 grams Solvent
  Min. Unstable concentration (crystals first appear): 5.2 grams/100 grams Solvent
[3]; 3° C.
  Max. Solubility Range For Linuron: 4.1-4.7 grams/100 grams Solvent
  Max. Stable concentration: 4.1 grams/100 grams Solvent
  Min. Unstable concentration: 4.7 grams/100 grams Solvent
[3]; -8° to -9° C.
  Max. Solubility Range For Linuron: 3.6-4.1 grams/100 grams Solvent
  Max. Stable concentration: 3.6 grams/100 grams Solvent
  Min. Unstable concentration: 4.1 grams/100 grams Solvent
[2]; 5 weight % linuron, 95% tetrachloroethylene, room temperature
  crystalline material: moderate
[2]; 9 weight % linuron, 91% tetrachloroethylene, room temperature
  crystalline material: heavy
[2]; 9 weight % linuron, 91% xylene, room temperature
  crystalline material: slight
[2]; 10 weight % linuron, 90% "Panasol" AN-3, room temperature
  crystalline material: moderate
[2]; 15 weight % linuron, 85% "Panasol" AN-3, room temperature
  crystalline material: heavy
[2]; 17 weight % linuron, 83% xylene, room temperature
  crystalline material: heavy
[2]; hydrocarbons and halocarbons, room temperature
  dissolution result on shaking in the solvent: crystals remained
